Results reported in PMC8913315, “Comparison of glycoside hydrolase family 3 β-xylosidases from basidiomycetes and ascomycetes reveals evolutionarily distinct xylan degradation systems” (The Journal of Biological Chemistry, 2022).

Legend:
PcBxl3 = biological target: T1, PcBxl3 (Phanerodontia chrysosporium, UniProt Z9K6S9QQP9); assay: X-ray crystal structure, […] Å; format: binding; settings: crystal soaked briefly in 100 mM xylobiose, 40% PEG 400; Endo H deglycosylated; subsite -1
T1 construct: cDNA from strain K-3, pPICZalpha A, secreted from Pichia pastoris KM71H; 743 residues; glycosylated, Endo H treated for crystals; monomer in asymmetric unit
T1 sequence (Z9K6S9QQP9 1-743): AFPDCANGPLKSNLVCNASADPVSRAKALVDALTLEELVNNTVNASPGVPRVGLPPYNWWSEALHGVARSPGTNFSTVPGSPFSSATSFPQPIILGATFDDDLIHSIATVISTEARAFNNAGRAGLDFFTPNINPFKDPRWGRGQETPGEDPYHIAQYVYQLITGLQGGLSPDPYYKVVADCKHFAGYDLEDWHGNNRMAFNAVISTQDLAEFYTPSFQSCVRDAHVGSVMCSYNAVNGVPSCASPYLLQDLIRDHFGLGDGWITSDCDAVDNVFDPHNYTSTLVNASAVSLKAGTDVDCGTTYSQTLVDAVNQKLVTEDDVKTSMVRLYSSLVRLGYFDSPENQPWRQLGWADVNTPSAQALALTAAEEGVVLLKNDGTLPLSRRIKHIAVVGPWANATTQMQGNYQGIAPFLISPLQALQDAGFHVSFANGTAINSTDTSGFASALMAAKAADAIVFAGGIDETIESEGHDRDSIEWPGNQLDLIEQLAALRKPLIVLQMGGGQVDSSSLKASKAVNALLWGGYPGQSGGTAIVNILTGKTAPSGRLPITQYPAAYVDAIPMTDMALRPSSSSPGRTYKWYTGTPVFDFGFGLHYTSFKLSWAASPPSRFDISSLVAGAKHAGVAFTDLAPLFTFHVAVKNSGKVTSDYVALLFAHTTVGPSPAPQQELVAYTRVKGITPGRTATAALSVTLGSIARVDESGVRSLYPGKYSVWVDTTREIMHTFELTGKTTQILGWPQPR

TrXyl3A = biological target: T2, TrXyl3A (Trichoderma reesei, UniProt Q92458); assay: X-ray crystal structure, […] Å; format: binding; settings: crystal soaked 1 h with 14 mM 4-thioxylobiose, pH 7.0; subsites -1 and +1
T2 construct: gene bxl1; kinetics: synthetic gene codon-optimized, pPICZalpha A, secreted from Pichia pastoris KM71H; crystals: protein gift from DuPont Industrial Bioscience; 777 residues; dimer in asymmetric unit
T2 sequence (Q92458 entry or part of it): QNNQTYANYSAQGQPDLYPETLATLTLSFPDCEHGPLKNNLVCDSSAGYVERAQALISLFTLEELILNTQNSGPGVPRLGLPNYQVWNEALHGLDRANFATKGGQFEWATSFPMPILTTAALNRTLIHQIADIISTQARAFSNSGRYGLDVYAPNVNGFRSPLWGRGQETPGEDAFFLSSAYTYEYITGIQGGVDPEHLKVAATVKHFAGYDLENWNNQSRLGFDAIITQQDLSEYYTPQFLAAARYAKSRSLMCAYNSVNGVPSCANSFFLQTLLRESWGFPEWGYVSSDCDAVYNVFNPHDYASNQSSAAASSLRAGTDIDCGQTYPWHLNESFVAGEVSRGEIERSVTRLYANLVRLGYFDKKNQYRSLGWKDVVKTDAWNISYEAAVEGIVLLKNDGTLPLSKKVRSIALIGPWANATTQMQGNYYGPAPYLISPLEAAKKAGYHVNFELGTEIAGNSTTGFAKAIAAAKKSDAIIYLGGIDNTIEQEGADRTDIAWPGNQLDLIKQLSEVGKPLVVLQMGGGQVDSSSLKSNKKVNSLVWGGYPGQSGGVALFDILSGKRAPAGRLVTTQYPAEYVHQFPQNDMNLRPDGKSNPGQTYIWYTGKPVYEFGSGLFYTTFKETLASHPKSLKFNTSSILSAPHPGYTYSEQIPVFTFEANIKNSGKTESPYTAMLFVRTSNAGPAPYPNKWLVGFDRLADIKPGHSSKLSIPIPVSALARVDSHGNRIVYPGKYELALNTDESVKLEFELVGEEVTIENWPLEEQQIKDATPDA

Row | SMILES | X-ray crystal structure, 3.08 Å (PcBxl3) | X-ray crystal structure, 2.1 Å (TrXyl3A)
1 | OC1OC[C@@H](O)[C@H](O)[C@H]1O (some centres unmarked) [X, xylose] | The structure of PcBxl3 with xylose bound in the catalytic center was also determined | –
2 | OC1OC[C@@H](S[C@@H]2OC[C@@H](O)[C@H](O)[C@H]2O)[C@H](O)[C@H]1O (some centres unmarked) [4-thioxylobiose] | – | The crystal structure of TrXyl3A bound with thioxylobiose was determined by molecular replacement
